Results published in patent publication US12012467B2, “Small molecule DCN1 inhibitors and therapeutic methods using the same” (THE REGENTS OF THE UNIVERSITY OF MICHIGAN, priority 2017, dated 2024).
Where two headings read alike, the source gives them in different places.

Target: DCN1 (Homo sapiens (Human), UniProt Q96GG9)
Experiment: Competitive FP binding assay
Description: Competitive FP Binding Assay
The Fluorescence Polarization (FP) competitive binding assays were performed to accurately determine the binding affinities of our DCN1 inhibitors. […] Serial dilutions of proteins were mixed with 46 to a final volume of 200 μl in the assay buffer (100 mM phosphate buffer, pH=6.5, with 0.02% Tween-20 and 2% DMSO). Final probe concentration was 5 nM for both assays. Plates were incubated at room temperature for 30 minutes with gentle shaking to assure equilibrium.
Pure proteins were derived from the same expression and purification protocols. Plasmids were transformed into Rosetta2 cells, the cells were grown in Terrific Broth at 37° C. to an O.D.600>1.0 and induced with 0.4 mM Isopropyl (3-D-1-thiogalactopyranoside overnight at 20° C. The pelleted cells were resuspended in lysis buffer containing 25 mM Tris-HCl, pH 7.5, 200 mM NaCl and protease inhibitors, sonicated and centrifuged at 34,000×g for 45 minutes to remove debris. Cleared lysate was incubated with Ni-NTA resin (Qiagen) prewashed with lysis buffer, for 1 hr at 4° C. The matrix was loaded into a column then washed with 25 mM Tris-HCl, pH 7.5, 200 mM NaCl and 10 mM imidazole. Protein was eluted with 25 mM Tris-HCl, pH 7.5, 200 mM NaCl and 300 mM imidazole, concentrated and applied to a Superdex 75 (GE Healthcare) column pre-equilibrated with 25 mM Tris pH 7.5, 200 mM NaCl and 1 mM DTT. For DCN2-5, the N-terminal His6 tag was removed prior to gel filtration. Tag removal was achieved through incubation with TEV protease during overnight dialysis against 25 mM Tris pH 7.5, 200 mM NaCl and 1 mM DTT and a second Ni-NTA column. DCN2-5 proteins were stored at −80° C. in 1 mg/mL fractions containing 5% glycerol. The uncleaved DCN1 protein was stored at −80° C. without glycerol.

[1] = read-out: Binding affinity to DCN1 (IC50 (nM))
[2] = bounds given in μM, read-out: Binding affinity to DCN1 (IC50)

Sequence of DCN1 (Q96GG9 58-259): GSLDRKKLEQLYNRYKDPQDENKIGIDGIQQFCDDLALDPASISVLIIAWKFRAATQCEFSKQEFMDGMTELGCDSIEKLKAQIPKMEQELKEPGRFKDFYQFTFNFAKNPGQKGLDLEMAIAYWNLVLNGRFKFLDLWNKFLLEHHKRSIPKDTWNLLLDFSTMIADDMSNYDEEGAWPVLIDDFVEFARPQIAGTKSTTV

| Compound | IC50 [1] | IC50 [2] |
| --- | --- | --- |
| CCC(=O)N[C@@H](Cc1nc2ccc(C(C)C)cc2s1)C(=O)N[C@H](CNC(=O)c1c[nH]cn1)C1CCCCC1 [Example 67] | 257 nM |  |
| CCC(=O)N[C@@H](Cc1nc2ccc(C(C)C)cc2s1)C(=O)N[C@H](CNC(=O)C1CNC1)C1CCCCC1 [Example 68] | 66.6 nM |  |
| CCC(=O)N[C@@H](Cc1nc2ccc(C(C)C)cc2s1)C(=O)N[C@H](CNC(=O)C1CN(C)C1)C1CCCCC1 [Example 69] | 71.6 nM |  |
| CCC(=O)N[C@@H](Cc1nc2ccc(C(C)C)cc2s1)C(=O)N[C@H](CNC(=O)C1CCN(CC)CC1)C1CCCCC1 [Example 70] | 45.1 nM |  |
| CCC(=O)N[C@@H](Cc1nc2ccc(C(C)C)cc2s1)C(=O)N[C@H](CNC(=O)C1CCN(C(C)C)CC1)C1CCCCC1 [Example 71] | 110 nM |  |
| CCC(=O)N[C@@H](Cc1nc2ccc(C(C)C)cc2s1)C(=O)N[C@H](CNC(=O)C1CCN(CCO)CC1)C1CCCCC1 [Example 72] | 65.9 nM |  |
| CCC(=O)N[C@@H](Cc1nc2ccc(C(C)C)cc2s1)C(=O)N[C@H](CNC(=O)C1CCN(CCF)CC1)C1CCCCC1 [Example 74] | 112 nM |  |
| CCC(=O)N[C@@H](Cc1nc2ccc(C(C)C)cc2s1)C(=O)N[C@H](CNC(=O)NC1CCN(C)CC1)C1CCCCC1 [Example 75] | 75.6 nM |  |
| CCC(=O)N[C@@H](Cc1nc2ccc(C(C)C)cc2s1)C(=O)N[C@H](CNS(=O)(=O)C1CCN(C)CC1)C1CCCCC1 [Example 76] | 65.7 nM |  |
| CCC(=O)N[C@@H](Cc1nc2ccc(C(C)C)cc2s1)C(=O)N[C@H](CNc1ccncn1)C1CCCCC1 [Example 78] | 189 nM |  |
| CCC(=O)N[C@@H](Cc1nc2ccc(C(C)C)cc2s1)C(=O)N[C@H](CN(C)C)C1CCCCC1 [Example 79, (S)—N—((S)-1-cyclohexyl-2-(dimethylamino)ethyl)-3-(6-isopropylbenzo[d]thiazol-2-yl)-2-propionamidopropanamide] | 93.6 nM |  |
| CCC(=O)N[C@@H](Cc1nc2ccc(C(C)C)cc2s1)C(=O)N[C@H](CN1CCOCC1)C1CCCCC1 [Example 80, (S)—N—((S)-1-cyclohexyl-2-morpholinoethyl)-3-(6-isopropylbenzo[d]thiazol-2-yl)-2-propionamidopropanamide] | 157 nM |  |
| CCC(=O)N[C@@H](Cc1nc2ccc(C(C)C)cc2s1)C(=O)N[C@H](CO)C1CCCCC1 [Example 81, (S)—N—((S)-1-cyclohexyl-2-hydroxyethyl)-3-(6-isopropylbenzo[d]thiazol-2-yl)-2-propionamidopropanamide] | 127 nM |  |
| CCC(=O)N[C@@H](Cc1nc2ccc(C(C)C)cc2s1)C(=O)N[C@H](Cn1cc(CN)nn1)C1CCCCC1 [Example 82] | 243 nM |  |
| CCC(=O)N[C@@H](Cc1nc2ccc(C(C)C)cc2s1)C(=O)N[C@H](Cn1cc(CO)nn1)C1CCCCC1 [Example 83] | 656 nM |  |
| CCC(=O)N[C@@H](Cc1nc2ccc(C(C)C)cc2s1)C(=O)NC(CSc1nncn1C)C1CCCCC1 (some centres unmarked) [Example 84] | 242 nM |  |
| CCC(=O)N[C@@H](Cc1nc2ccc(C(C)C)cc2s1)C(=O)N[C@H](COCCN1CCOCC1)C1CCCCC1 [Example 85] | 138 nM |  |
| CCC(=O)N[C@@H](Cc1nc2ccc(Cl)cc2s1)C(=O)N[C@H](CN)Cc1ccccc1 [Example 86] | 491 nM |  |
| CCC(=O)N[C@@H](Cc1nc2ccc(C(C)C)cc2s1)C(=O)N[C@@H](CN)Cc1ccccc1 [Example 90] |  | > 5000 nM |
| CCC(=O)N[C@@H](Cc1nc2ccc(Cl)cc2s1)C(=O)N[C@H](CNC(=O)CCN1CCOCC1)Cc1ccccc1 [Example 92] | 244 nM |  |
| CCC(=O)N[C@@H](Cc1nc2ccc(C(C)C)cc2s1)C(=O)N[C@H](CNC(=O)CCN1CCOCC1)Cc1ccccc1 [Example 93] | 89.9 nM |  |
| CC(C)C(=O)N[C@@H](Cc1nc2ccc(C(C)C)cc2s1)C(=O)NCCN [Example 95] |  | > 10000 nM |
| CC(C)c1ccc2nc(C[C@H](NC(=O)C3CC3)C(=O)NCCN)sc2c1 [Example 96] |  | > 10000 nM |
| CCC(=O)N[C@@H](Cc1nc(C)c(C(C)C)s1)C(=O)N[C@H](CN)Cc1ccccc1 [Example 99] |  | > 10000 nM |

| Compound | IC50 [1] | IC50 [2] |
| --- | --- | --- |
| CCC(=O)N[C@@H](Cc1nc(C)c(-c2ccc(F)cc2)s1)C(=O)N[C@H](CN)Cc1ccccc1 [Example 100] | 2220 nM |  |
| CCC(=O)N[C@@H](Cc1nc(C)c(-c2ccccc2)s1)C(=O)N[C@H](CN)Cc1ccccc1 [Example 101] | 1740 nM |  |
| CCC(=O)N[C@@H](Cc1nc(C)c(-c2ccc(Cl)cc2)s1)C(=O)N[C@H](CN)Cc1ccccc1 [Example 102] | 1280 nM |  |
| CCC(=O)N[C@@H](Cc1nc(C)c(-c2cccc(Cl)c2)s1)C(=O)N[C@H](CN)Cc1ccccc1 [Example 103] | 264 nM |  |
| CCC(=O)N[C@@H](Cc1nc(C)c(-c2ccccc2Cl)s1)C(=O)N[C@H](CN)Cc1ccccc1 [Example 104] |  | > 10000 nM |
| CCC(=O)N[C@@H](Cc1nc(C)c(-c2ccc(C#N)cc2)s1)C(=O)N[C@H](CN)Cc1ccccc1 [Example 105] |  | > 10000 nM |
| CCC(=O)N[C@@H](Cc1nc(C)c(-c2ccc([N+](=O)[O-])cc2)s1)C(=O)N[C@H](CN)Cc1ccccc1 [Example 106] |  | > 10000 nM |
| CCC(=O)N[C@@H](Cc1nc(C)c(-c2cccc(Cl)c2)s1)C(=O)N[C@H](CN)C1CCCCC1 [Example 107] | 704 nM |  |
| CCC(=O)N[C@@H](Cc1cn2cc(Cl)ccc2n1)C(=O)N[C@H](CN)Cc1ccccc1 [Example 108] | 4170 nM |  |
| CCC(=O)N[C@H](CN)Cc1nc2ccc(C(C)C)cc2s1 [Example 109] |  | > 10000 nM |
| CCC(=O)N[C@H](CNC(=O)C1(N)CCCCC1)Cc1nc2ccc(C(C)C)cc2s1 [Example 110] | 1900 nM |  |
| CCC(=O)N[C@H](CNC(=O)C1(N)CCC(F)(F)CC1)Cc1nc2ccc(C(C)C)cc2s1 [Example 111] |  | > 5000 nM |
| CCC(=O)N[C@H](CNC(=O)C1(N)CCOCC1)Cc1nc2ccc(C(C)C)cc2s1 [Example 112] | 5060 nM |  |
| CCC(=O)N[C@H](CNC(=O)C1(N)CCC1)Cc1nc2ccc(C(C)C)cc2s1 [Example 113] | 4110 nM |  |
| CCC(=O)N[C@H](CNC(=O)C1(N)CCCC1)Cc1nc2ccc(C(C)C)cc2s1 [Example 114] | 1560 nM |  |
| CCC(=O)N[C@H](CNC(=O)C1(N)CCCCCC1)Cc1nc2ccc(C(C)C)cc2s1 [Example 115] | 2390 nM |  |
| CCC(=O)N[C@H](CNC(=O)C1(N)CCCCCCC1)Cc1nc2ccc(C(C)C)cc2s1 [Example 116] | 2200 nM |  |
| CCC(=O)N[C@H](CNC(=O)C1(CN)CCCCC1)Cc1nc2ccc(C(C)C)cc2s1 [Example 117] | 875 nM |  |
| CCC(=O)N[C@H](CNC(=O)[C@@H]1CCCCN1)Cc1nc2ccc(C(C)C)cc2s1 [Example 118] | 3110 nM |  |
| CCC(=O)N[C@H](CNC(=O)C1(N)CCCCC1)Cc1nc2ccc(Cl)cc2s1 [Example 119] | 477 nM |  |
| CCC(=O)N[C@H](Cc1nc2ccc(C(C)C)cc2s1)C(=O)N[C@@H](CN)C1CCCCC1 [Example 122, (R)—N—((R)-2-amino-1-cyclohexylethyl)-3-(6-isopropylbenzo[d]thiazol-2-yl)-2-propionamidopropanamide] |  | > 10000 nM |
| CCC(=O)N[C@@H](Cc1ccc2ccccc2c1)C(=O)N[C@H](C(=O)N[C@@H](CCCCN)C(=O)NC(c1ccc(F)cc1)c1ccc(F)cc1)[C@@H](C)CC [Example 128] | 321 ± 32 nM |  |
| CCC(=O)N[C@@H](Cc1ccc2ccccc2c1)C(=O)N[C@H](C(=O)N[C@@H](CCCCN)C(=O)NC(c1ccc(Cl)cc1)c1ccc(Cl)cc1)[C@@H](C)CC [Example 129] | 748 nM |  |
